Where a name gives a salt, the structure may show the parent alone.
Tests used:
[1] = target: T1, gluthathione reductase (GR) (Homo sapiens, UniProt P00390); assay: Inhibition of recombinant GR (GSSG assay); assay type: biochemical; settings: Biological Example 4; assays of Biological Example 1
T1 sequence (P00390 44-522): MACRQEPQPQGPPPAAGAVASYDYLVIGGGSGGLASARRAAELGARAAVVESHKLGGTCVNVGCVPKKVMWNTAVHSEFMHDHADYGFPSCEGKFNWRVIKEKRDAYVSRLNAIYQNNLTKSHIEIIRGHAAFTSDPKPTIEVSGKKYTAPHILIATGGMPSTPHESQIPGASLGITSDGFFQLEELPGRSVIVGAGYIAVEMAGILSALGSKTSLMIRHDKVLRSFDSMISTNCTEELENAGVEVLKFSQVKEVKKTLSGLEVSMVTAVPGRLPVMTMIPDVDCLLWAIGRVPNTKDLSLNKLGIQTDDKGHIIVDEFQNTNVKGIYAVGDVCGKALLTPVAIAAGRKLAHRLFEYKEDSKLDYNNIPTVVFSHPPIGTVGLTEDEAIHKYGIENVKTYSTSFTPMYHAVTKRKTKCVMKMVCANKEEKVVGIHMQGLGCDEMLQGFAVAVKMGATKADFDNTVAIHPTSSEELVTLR
Method: (§1) Small molecule inhibition of recombinant thioredoxin reductase 1 (TrxR1) and gluthathione reductase (GR) was examined in 96-well plate format. 15 nM TrxR1 was incubated in the presence of 250 μM NADPH, 0.1 mg/ml BSA, and various concentrations of the compound of Example 1 (1% DMSO final) in 50 mM Tris (pH 7.5) and 2 mM EDTA buffer for 15 minutes. Following the incubation period, 2.5 mM DTNB was added to each well and the change in O.D. at 412 nm was followed. Percent activity was determined using DMSO vehicle and no TrxR1 (blank) controls. 2 nM GR was incubated in the presence of 250 μM NADPH, 0.1 mg/ml BSA, and various concentrations of compounds (1% DMSO final) in 50 mM Tris (pH 7.5) and 2 mM EDTA buffer for 15 minutes. Following the incubation period, 1 mM GSSG was added to each well and the change in O.D. at 340 nm was followed. Percent activity was determined using DMSO vehicle and no GR (blank) controls.

[2] = target: T2, recombinant thioredoxin reductase 1 (TrxR1) (Homo sapiens, UniProt Q16881); assay: Inhibition of recombinant TrxR1 (DTNB assay); assay type: biochemical; settings: Biological Example 4; assays of Biological Example 1; read-out: TrxR Inhibition
T2 sequence (Q16881 1-649): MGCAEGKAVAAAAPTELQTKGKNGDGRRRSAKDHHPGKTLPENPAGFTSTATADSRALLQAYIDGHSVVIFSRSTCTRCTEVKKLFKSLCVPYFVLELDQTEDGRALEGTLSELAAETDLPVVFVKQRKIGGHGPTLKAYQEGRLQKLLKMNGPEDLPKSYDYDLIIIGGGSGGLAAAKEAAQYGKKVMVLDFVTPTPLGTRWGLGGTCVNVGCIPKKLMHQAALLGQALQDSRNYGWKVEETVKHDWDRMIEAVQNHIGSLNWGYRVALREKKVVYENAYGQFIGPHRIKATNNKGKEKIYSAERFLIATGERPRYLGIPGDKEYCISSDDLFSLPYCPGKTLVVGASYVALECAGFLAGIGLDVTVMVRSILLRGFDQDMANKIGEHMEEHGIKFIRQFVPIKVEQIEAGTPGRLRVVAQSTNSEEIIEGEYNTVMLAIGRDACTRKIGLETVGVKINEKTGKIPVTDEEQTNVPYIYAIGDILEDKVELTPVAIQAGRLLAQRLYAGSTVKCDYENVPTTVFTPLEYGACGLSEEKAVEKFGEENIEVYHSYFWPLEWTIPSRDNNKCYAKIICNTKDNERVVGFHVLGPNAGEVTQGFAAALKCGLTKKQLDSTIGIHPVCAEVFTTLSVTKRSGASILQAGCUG
Method: as §1

IC50 [1] [µM]	IC50 [2] [nM]	Compound
> 100	1300	O=C1C=C[C@H]2[C@@H]3C(=O)N(c4ccccc4)C(=O)[C@@H]3[C@@H]1N2Cc1ccccc1Cl (relative stereo) [Example 24, exo-11-(2-Chlorobenzyl)-4-phenyl-4,11-diazatricyclo[5.3.1.0^2,6]undec-9-ene-3,5,8-trione Trifluoroacetate]
41.4	1250	CC1=CC(=O)C2C3C(=O)N(c4ccccc4)C(=O)C3C1N2Cc1ccccc1 (stereo not shown) [Example 12, 9-Benzyl-7-methyl-2-phenyl-3a,4,8,8a-tetrahydro-4,8-epiminocyclohepta[c]-pyrrole-1,3,5(2H)-trione Trifluoroacetate]
> 100	1070	O=C1C=C[C@H]2[C@@H]3C(=O)N(c4ccccc4)C(=O)[C@@H]3[C@@H]1N2Cc1cccc(F)c1 (relative stereo) [Example 29, exo-11-(3-Fluorobenzyl)-4-phenyl-4,11-diazatricyclo[5.3.1.0^2,6]undec-9-ene-3,5,8-trione Trifluoroacetate]
> 100	2490	CC(c1ccccc1)N1C2C=CC(=O)C1C1C(=O)N(c3ccccc3)C(=O)C12 (stereo not shown) [Example 5, 4-Phenyl-11-(1-phenylethyl)-4,11-diazatricyclo[5.3.1.0^2,6]undec-9-ene-3,5,8-trione Trifluoroacetate]
68.5	1470	N#Cc1cccc(CN2C3C=CC(=O)C2C2C(=O)N(c4ccccc4)C(=O)C23)c1 (stereo not shown) [Example 36, 3-((4-Phenyl-3,5,10-trioxo-4,11-diazatricyclo[5.3.1.0^2,6]undec-8-en-11-yl)-methyl)benzonitrile Trifluoroacetate]
> 100	1340	O=C1C=C[C@H]2[C@@H]3C(=O)N(c4ccccc4)C(=O)[C@@H]3[C@@H]1N2Cc1cc(F)ccc1F (relative stereo) [Example 27, exo-11-(2,5-Difluorobenzyl)-4-phenyl-4,11-diazatricyclo[5.3.1.0^2,6]undec-9-ene-3,5,8-trione Trifluoroacetate]
> 100	5560	CC(C)(C)N1C(=O)C2C(C1=O)[C@@H]1C=CC(=O)[C@H]2N1Cc1ccccc1 (mixture of isomers) [Example 16, endo 11-Benzyl-4-(tert-butyl)-4,11-diazatricyclo[5.3.1.0^2,6]undec-9-ene-3,5,8-trione Trifluoroacetate]
> 100	1230	Cc1cccc(CN2[C@@H]3C(=O)C=C[C@H]2[C@@H]2C(=O)N(c4cccc(Br)c4)C(=O)[C@@H]23)c1 (relative stereo) [Example 62, exo-4-(3-Bromophenyl)-11-(3-methylbenzyl)-4,11-diazatricyclo[5.3.1.0^2,6]-undec-9-ene-3,5,8-trione Trifluoroacetate]
> 100	1580	Cc1cccc(CN2[C@@H]3C(=O)C=C[C@H]2[C@@H]2C(=O)N(c4cccc(N5CCCCC5)c4)C(=O)[C@@H]23)c1 (relative stereo) [Example 63, exo-11-(3-Methylbenzyl)-4-(3-(piperidin-1-yl)phenyl)-4,11-diazatricyclo-[5.3.1.0^2,6]undec-9-ene-3,5,8-trione Trifluoroacetate]

Compound	IC50 [1] [µM]	IC50 [2] [nM]
Cc1cccc(CN2C3C=CC(=O)C2C2C(=O)N(c4ccccc4)C(=O)C23)c1F (stereo not drawn) [Example 35, exo-11-(2-Fluoro-3-methylbenzyl)-4-phenyl-4,11-diazatricyclo[5.3.1.0^2,6]-undec-9-ene-3,5,8-trione Trifluoroacetate]	> 100	1060
O=C1C=CC2C3C(=O)N(c4ccccc4)C(=O)C3C1N2Cc1cc(Cl)ccc1F (stereo not drawn) [Example 40, exo-11-(5-Chloro-2-fluorobenzyl)-4-phenyl-4,11-diazatricyclo[5.3.1.0^2,6]-undec-9-ene-3,5,8-trione Trifluoroacetate]	31.6	770

Source: patent US10881653B2, “Tricyclic compounds and their use in the treatment of cancer” (The United States of America, as represented by the …, priority 2015, dated 2021)
